Source: US9180193B2, “Antiviral compounds” (Hoffmann-La Roche Inc., priority 2011, dated 2015)

Test system: not listed separately
Assay: in vitro
Assay type: cell-based
Conditions: human
Method: Determination of Compounds Cytotoxicity Using the HCV GT1b Replicon Cell Line Measuring WST1.
2209-23 cells were plated at a cell density of 5000 cells per well in clear flat-bottom 96 well plate (Becton Dickinson, Cat #35 3075) for cell viability studies. The WST-1 cell proliferation assay (Roche Diagnostic, Cat#11644807001) was used to determine cell viability. Assay plates were set up in the same format as in the replicon assay. After 3 days of compound incubation 10 μl of WST-1 reagent was added to each well for 2 hours at 37° C. and 5% CO2, following manufacturer's instructions. Absorption reading at 450 nm (reference filter at 650 nm) was determined using MRX Revelation microtiter plate reader (Lab System). CC50 values were defined as the compound concentration required for reducing cell viability by 50% as compared to the untreated control in absence of compound and was determined by non-linear fitting of compound dose-response data. Representative assay data can be found in Table II below: […]
Work on `COC(=O)N[C@H]1CCC(=O)N2CCC[C@@H](c3ncc(-c4ccc(-c5cnc6cc(-c7cnc([C@@H]8CCCN8C(=O)[C@@H](NC(=O)OC)C(C)C)[nH]7)ccc6n5)cc4)[nH]3)N2C1=O` [Compound I-4, ((4S,7S)-4-{5-[4-(6-{2-[(S)-1-((S)-2-Methoxycarbonylamino-3-methyl-butyryl)-pyrrolidin-2-yl]-3H-imidazol-4-yl}-quinoxalin-2-yl)-phenyl]-1H-imidazol-2-yl}-6,10-dioxo-octahydro-pyridazino[1,2-a][1,2]diazepin-7-yl)-carbamic acid methyl ester] yielded a CC50 at 3 days of 8160 nM.

Test system: GT-1a pRLuc H77 1b 75 SI subgenomic replicon cell line (Huh7)
Assay: HCV GT-1a replicon luciferase reporter assay
Assay type: cell-based
Conditions: Hepatitis C virus, GT1A, Huh-7; Renilla luciferase reporter read 72 hours after compound addition; GT-1a H77 replicon cells
Excerpt: Determination of compounds HCV GT1b inhibitory replicon activity using the replicon luciferase reporter assay
The 2209-23 cell line was developed at Roche by stable transfection of the hepatoma cell line Huh-7 with a GT-1b Con1 subgenomic bicistronic replicon as previously described. Subgenomic replicon cell line was established in cured Huh7 cells, obtained from R. Bartenschlager (J Virol. 2003 March; 77 (5):3007-19) The GT-1a H77 subgenomic replicon vector pRLuc H77 lb 75 SI, was created by replacing the non structural region of the GT-1b Con1 subgenomic replicon by the one of the H77 strain, except for the first 75 amino acids of the NS3 protein that are from GT-1b Con1 strain. (J Virol. 2001 77:5352-59) The GT-1a pRLuc H77 1b 75 SI subgenomic replicon cell line was established in cured Huh7 cells, obtained from R. Bartenschlager. (J Virol. 2003 March; 77 (5):3007-19)
All the subgenomic replicon cell lines were cultured in Dulbecco's Modified Eagle Medium (DMEM-Glutamax™-I; Invitrogen Cat #10569-010). The medium was supplemented with 10% Fetal Bovine Serum (Invitrogen Cat #10082-147), 1% penicillin/streptomycin (Mediatech Cat #30-002-CI) and 500 μg/ml of G418 (Mediatech Cat #30-234-CI). Cells were maintained at 37° C. in a humidified 5% CO2 atmosphere.
2209-23 cells were plated at a cell density of 5000 cells per well in 96 well plates (Becton Dickinson, Cat #35 3296). Cells were plated in 90 μl of Dulbecco's Modified Eagle Medium (DMEM-Glutamax™-I), (Invitrogen Cat #10569-010) medium was supplemented with 5% Fetal Bovine Serum (Invitrogen Cat #10082-147), 1% penicillin/streptomycin (Mediatech Cat #30-002-CI). The pRluc H77 1b 75 SI cells were plated in 96-well plate at 3000 cells/well in DMEM-Glutamax™-I containing 5% FBS and 1% penicillin/streptomycin in 90 μl final volume. Cells were allowed to equilibrate for 24 hours at 37° C. and 5% CO2 at which time compounds were added. Compounds (or medium as a control) were added 24 hours post-plating in 3 fold dilutions at a final DMSO concentration of 1% in 10 ul volume. Renilla luciferase reporter signal was read 72 hours after addition of compounds using the Renilla Luciferase Assay System (Promega, cat # E2820). EC50 values were defined as the compound concentration at which a 50% reduction in the levels of renilla luciferase reporter was observed as compared to control samples in the absence of compound and was determined by non-linear fitting of compound dose-response data. The EC50 was approximated if maximum percentage inhibition was less than 90% and more than 70%.
`COC(=O)N[C@H]1CCC(=O)N2CCC[C@@H](c3ncc(-c4ccc(-c5ccc(-c6cnc([C@@H]7CCCN7C(=O)[C@@H](NC(=O)OC)C(C)C)[nH]6)cc5)cc4)[nH]3)N2C1=O` [Compound I-7, {(4S,7S)-4-[5-(4′-{2-[(S)-1-((S)-2-Methoxycarbonylamino-3-methyl-butyryl)-pyrrolidin-2-yl]-3H-imidazol-4-yl}-biphenyl-4-yl)-1H-imidazol-2-yl]-6,10-dioxo-octahydro-pyridazino[1,2-a][1,2]diazepin-7-yl}-carbamic acid methyl ester] showed an EC50 of 1.1 nM. For `COC(=O)N[C@H]1CCC(=O)N2CCC[C@@H](c3ncc(-c4ccc(-c5ccc(-c6cnc(C7CC8(CCOCC8)CN7C(=O)[C@@H](NC(=O)OC)C(C)C)[nH]6)cc5)cc4)[nH]3)N2C1=O` (stereo partly drawn) [Compound I-6, {(4S,7S)-4-[5-(4′-{2-[2-((S)-2-Methoxycarbonylamino-3-methyl-butyryl)-8-oxa-2-aza-spiro[4.5]dec-3-yl]-3H-imidazol-4-yl}-biphenyl-4-yl)-1H-imidazol-2-yl]-6,10-dioxo-octahydro-pyridazino[1,2-a][1,2]diazepin-7-yl}-carbamic acid methyl ester], the EC50 was 1.5 nM. Work on `COC(=O)N[C@H]1CCC(=O)N2CCC[C@@H](c3ncc(-c4ccc(-c5ccc(-c6cnc([C@@H]7CCCN8C(=O)CC[C@H](NC(=O)OC)C(=O)N78)[nH]6)cc5)cc4)[nH]3)N2C1=O` [Compound I-1, [(4S,7S)-4-(5-{4′-[2-((1S,9S)-9-[(Methoxycarbonyl)amino]-6,10-dioxo-octahydro-pyridazino[1,2-a][1,2]diazepin-1-yl)-3H-imidazol-4-yl]-biphenyl-4-yl}-1H-imidazol-2-yl)-6,10-dioxo-octahydro-pyridazino[1,2-a][1,2]diazepin-7-yl]-carbamic acid methyl ester] yielded an EC50 of 10.6 nM. In the case of `COC(=O)N[C@H]1CCC(=O)N2CCC[C@@H](c3nc4cc(-c5ccc(-c6cnc([C@@H]7CCCN7C(=O)[C@@H](NC(=O)OC)C(C)C)[nH]6)cc5)ccc4[nH]3)N2C1=O` [Compound I-2, {(4S,7S)-4-[5-(4-{2-[(S)-1-((S)-2-Methoxycarbonylamino-3-methyl-butyryl)-pyrrolidin-2-yl]-3H-imidazol-4-yl}-phenyl)-1H-benzoimidazol-2-yl]-6,10-dioxo-octahydro-pyridazino[1,2-a][1,2]diazepin-7-yl}-carbamic acid methyl ester], the EC50 is reported as 156 nM. In the case of `COC(=O)N[C@H](C(=O)N1CCC[C@H]1c1ncc(-c2ccc(-c3ccc(-c4cnc([C@@H]5CCCN6C(=O)CC[C@H](NC(=O)OCc7ccccc7)C(=O)N56)[nH]4)cc3)cc2)[nH]1)C(C)C` [Compound I-3, {(4S,7S)-4-[5-(4′-{2-[(S)-1-((S)-2-Methoxycarbonylamino-3-methyl-butyryl)-pyrrolidin-2-yl]-3H-imidazol-4-yl}-biphenyl-4-yl)-1H-imidazol-2-yl]-6,10-dioxo-octahydro-pyridazino[1,2-a][1,2]diazepin-7-yl}-carbamic acid benzyl ester], the EC50 is reported as 2.95 nM. In the case of `COC(=O)N[C@H]1CCC(=O)N2CCC[C@@H](c3ncc(-c4ccc(-c5ccc(-c6cnc([C@@H]7CC(F)(F)CN7C(=O)[C@@H](NC(=O)OC)C(C)C)[nH]6)cc5)cc4)[nH]3)N2C1=O` [Compound I-5, {(4S,7S)-4-[5-(4′-{2-[(S)-4,4-Difluoro-1-((S)-2-methoxycarbonylamino-3-methyl-butyryl)-pyrrolidin-2-yl]-3H-imidazol-4-yl}-biphenyl-4-yl)-1H-imidazol-2-yl]-6,10-dioxo-octahydro-pyridazino[1,2-a][1,2]diazepin-7-yl}-carbamic acid methyl ester], the EC50 is reported as 0.92 nM. `COC(=O)N[C@H]1CCC(=O)N2CCC[C@@H](c3ncc(-c4ccc(-c5cnc6cc(-c7cnc([C@@H]8CCCN8C(=O)[C@@H](NC(=O)OC)C(C)C)[nH]7)ccc6n5)cc4)[nH]3)N2C1=O` [Compound I-4, ((4S,7S)-4-{5-[4-(6-{2-[(S)-1-((S)-2-Methoxycarbonylamino-3-methyl-butyryl)-pyrrolidin-2-yl]-3H-imidazol-4-yl}-quinoxalin-2-yl)-phenyl]-1H-imidazol-2-yl}-6,10-dioxo-octahydro-pyridazino[1,2-a][1,2]diazepin-7-yl)-carbamic acid methyl ester] showed an EC50 of 0.13 nM.
